Here are results for 36 compounds from the SangsterLogP compilation.

Usually logD stands for lipophilicity at a set pH, counting ionised and neutral species.

This data set in a line: method code SF-AS, from DOI: 10.1021/jm00114a020, PMID: 1920359. Particulars: pH 7.4.

In turn, `NS(=O)(=O)c1ccc(SCCCO)s1` had a logD of 0.85. For `COCC(=O)OCCCS(=O)(=O)c1ccc(S(N)(=O)=O)s1` the value was -0.14. `NS(=O)(=O)c1ccc(S(=O)(=O)CCCO)cc1` came in with a logD of -0.64. The compound `CC(=O)OCCCCCc1ccc(S(N)(=O)=O)cc1` displayed a logD of 1.86. In turn, `COC(=O)c1cc(S(N)(=O)=O)ccc1S(=O)(=O)CCCO` had a logD of -0.3.

`NS(=O)(=O)c1ccc(SCCO)c(F)c1` showed a log distribution coefficient (logD) of 0.72. Turning to `NS(=O)(=O)c1ccc(S(=O)(=O)CCCO)s1`, the logD is -0.36. In the case of `Nc1cc(S(N)(=O)=O)ccc1S(=O)(=O)CCO`, the pH-dependent lipophilicity (logD) is -0.6. As to `CC(C)(O)CCSc1ccc(S(N)(=O)=O)cc1`, the logD came to 1.4. For the compound `NS(=O)(=O)c1ccc(SCCCCO)c(F)c1`, the log distribution coefficient (logD) turned out to be 1.28. In turn, `NS(=O)(=O)c1ccc(SCCCCO)s1` had a log distribution coefficient (logD) of 0.95. On to `NS(=O)(=O)c1ccc(SCCCO)c([N+](=O)[O-])c1`, for which the logD came to 0.96. As for `NS(=O)(=O)c1ccc(CCCCCO)cc1`, the logD stood at 1.04. With `NS(=O)(=O)c1ccc(S(=O)(=O)CCO)s1`, the logD was -0.54. On to `NS(=O)(=O)c1ccc(SCCO)c([N+](=O)[O-])c1`, for which the logD was found to be 0.38.

The compound `CC(=O)OCCCS(=O)(=O)c1ccc(S(N)(=O)=O)s1` gave a logD of 0.17.

`NS(=O)(=O)c1ccc(SCCCO)cc1` had a logD of 0.8.

Take `NS(=O)(=O)c1ccc(SCCCO)c(F)c1`: the pH-dependent lipophilicity (logD) was 0.99. Consider `CC(=O)OCCCc1ccc(S(N)(=O)=O)cc1`, for which the logD was determined as 0.98. For the compound `Nc1cc(S(N)(=O)=O)ccc1S(=O)(=O)CCCO`, the logD was -0.48.

Turning to `CC(C)(O)CCS(=O)(=O)c1ccc(S(N)(=O)=O)cc1`, the logD was -0.09. For `COC(=O)c1cc(S(N)(=O)=O)ccc1S(=O)(=O)CCO` the value was -0.47. In turn, `NS(=O)(=O)c1ccc(SCCCCO)cc1` had a logD of 0.93. Compound `NS(=O)(=O)c1ccc(S(=O)(=O)CCCO)c(F)c1` registered a logD of -0.41. Consider `NS(=O)(=O)c1ccc(S(=O)(=O)CCCO)c([N+](=O)[O-])c1`, for which the logD is -0.05. On to `NS(=O)(=O)c1ccc(CCCCO)cc1`, for which the logD was determined as 0.57. Turning to `NS(=O)(=O)c1ccc(S(=O)(=O)CCO)cc1`, the logD was -0.85. In turn, `NS(=O)(=O)c1ccc(SCCCCCO)cc1` displayed a logD of 1.04.

On to `NS(=O)(=O)c1ccc(S(=O)(=O)CCO)c(F)c1`, for which the logD is -0.6.

The compound `NS(=O)(=O)c1ccc(SCCO)s1` yielded a logD of 0.38. For `NS(=O)(=O)c1ccc(SCCCO)c(Cl)c1` the value was 1.59; for `CC(=O)OCCS(=O)(=O)c1ccc(S(N)(=O)=O)s1`, 0.11.

For the compound `NS(=O)(=O)c1ccc(S(=O)(=O)CCCCO)cc1`, the log distribution coefficient (logD) is -0.26. As for `NS(=O)(=O)c1ccc(S(=O)(=O)CCCCO)s1`, the pH-dependent lipophilicity (logD) is -0.34.

As for `NS(=O)(=O)c1ccc(CCCO)cc1`, the logD was determined as 0.17. `NS(=O)(=O)c1ccc(SCCO)cc1`: the logD amounted to 0.36.
